In paper PMC8835841, “Novel NK1R-Targeted ^68Ga-/^177Lu-Radioconjugates with Potential Application against Glioblastoma Multiforme: Preliminary Exploration of Structure–Activity Relationships” (International Journal of Molecular Sciences, 2022):

Columns and labels:
hNK1R = target: T1, hNK1R (Homo sapiens, UniProt P25103); test: Competitive radioligand binding assay, hNK1-CHO cell homogenates, [3H]-(Sar9,Met(O2)11)-Substance P; settings: for IC50: hNK1-CHO cell homogenates, mean of three independent experiments in duplicate unless stated, read-out: IC50 (Mean ± SD) hNK1R; for fold weaker hNK1R binding than parent compound: relative to L732,138 (1c)
T1 construct: expressed in transfected cells; host or cells: CHO-K1 (hNK1-CHO), gift from Dr. Attila Keresztes and Dr. John M. Streicher
Method: The CHO-K1 cells with a stable overexpression of the human NK1 receptor, denoted further on as hNK1-CHO cells, were obtained as a gift from Dr. Attila Keresztes and Dr. John M. Streicher. The cells were maintained in a humidified atmosphere with 5% CO2 at 37 °C, in Ham’s F12 medium (Corning, Corning, NY, USA) supplemented with 10% Foetal Bovine Serum (CytoGen, Wetzlar, Germany) and 400 μg/mL G418 (Corning, Corning, NY, USA).
When the cells reached approximately 90% confluence, they were harvested by treatment with 0.05% trypsin/EDTA (Corning, Corning, NY, USA). After centrifugation at 1500 rpm for 5 min, the cells were homogenized in a glass tissue homogenizer in ice-cold 50 mM Tris-HCl buffer (pH 7.4) with 5 mM MnCl2. The preparation was collected by centrifugation at 13,000 rpm for 25 min at 4 °C, and then the pellet was suspended in 50 mM Tris-HCl buffer. The homogenates were stored at −80 °C for later use. The BCA assay (Thermo Scientific, Waltham, MA, USA) was used to determine the protein concentration in the homogenates.
(§1) The binding affinity of the tested compounds for human and rat NK1R was determined in competitive radioligand binding assays following the method previously described. As a source of the receptor proteins, homogenates obtained from rat brains (obtained as described in Ref [30]) or homogenates made from hNK1-CHO cells were used. […] The final reaction volumes were 250 μL and 1 mL, for the human and rat NK1R determinations, respectively. […] The binding reaction mixtures were incubated in a shaking water bath at 25 °C for 60 min. The reaction was terminated by rapid filtration through Whatman GF/B filter (Gaithersburg, MD) presoaked in 0.5% polyethyleneimine and washed three times with 2 mL of cold saline. The filters were placed in 24-well plates and immersed in a Betaplate Scint scintillation solution (Perkin Elmer, Waltham, MA, USA). The filter-bound radioactivity was determined by scintillation counter MicroBeta LS, Trilux (PerkinElmer, Waltham, MA, USA).
(§2) The displacement curves were drawn and the mean IC50 values were determined with standard deviations (GraphPad Prism version 8.0, San Diego, CA, USA). At least three independent experiments (carried out in duplicate) were performed.

rNK1R = target: T2, rNK1R (Rattus norvegicus, UniProt P14600); test: Competitive radioligand binding assay, rat brain homogenates, [3H]-(Sar9,Met(O2)11)-Substance P; settings: mean of three independent experiments in duplicate unless stated; for IC50: read-out: IC50 (Mean ± SD) rNK1R
T2 construct: As a source of the receptor proteins, homogenates obtained from rat brains; from tissue; host or cells: rat brain homogenate
Method: as §1, §2

physchem = assay type: physicochemical
Method: A lipophilicity study was also performed right after the SPE method purification and ethanol evaporation. For each DOTA radioconjugate, the lipophilicity value was estimated as the logarithm of the distribution coefficient (D) based on the ratio of the radioactivity of the organic phase to the radioactivity of the aqueous phase in the n-octanol/PBS (pH 7.40) system. Simultaneously, the stability of the studied radioconjugate during the experiment was verified through the HPLC analysis of the aqueous phase.
A solution of isolated radioconjugate (approximately 0.5 MBq for ^177Lu-radioconjugates or 5 MBq for ^68Ga-radioconjugates) in 500 µL of 0.1 M PBS buffer (pH 7.40) and 500 µL of n-octanol was vigorously stirred and centrifuged (13,500 rpm for 5 min) to separate the immiscible phases. Then, the radioactivity of samples from both phases were measured using a well-type NaI(Tl) detector. The distribution coefficient, D, was calculated dividing the radioactivity of the radioconjugate in the organic phase to that in the aqueous phase. Each experiment was performed in triplicate and averaged. In parallel, the aqueous phases were analysed by HPLC to confirm the stability of studied radioconjugate during the experiment period. The lipophilicity value of each radioconjugates was expressed as the logarithm of its D value.

[1] = pH 7.4, logD7.4 (Mean ± SD) 177Lu-
[2] = pH 7.4, logD7.4 (Mean ± SD) 68Ga-

T1 sequence (P25103 whole entry): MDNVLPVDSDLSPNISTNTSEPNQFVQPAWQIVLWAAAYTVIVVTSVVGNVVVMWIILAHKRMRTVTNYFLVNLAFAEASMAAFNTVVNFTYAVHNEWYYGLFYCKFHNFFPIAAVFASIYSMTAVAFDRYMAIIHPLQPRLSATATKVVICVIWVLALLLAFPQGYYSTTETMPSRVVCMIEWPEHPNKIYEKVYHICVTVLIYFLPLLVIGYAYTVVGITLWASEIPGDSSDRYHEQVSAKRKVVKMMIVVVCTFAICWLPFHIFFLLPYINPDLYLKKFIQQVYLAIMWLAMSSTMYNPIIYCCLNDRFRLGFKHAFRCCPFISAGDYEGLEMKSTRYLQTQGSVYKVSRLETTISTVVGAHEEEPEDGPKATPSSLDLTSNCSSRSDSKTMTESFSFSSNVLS
T2 sequence (P14600 whole entry): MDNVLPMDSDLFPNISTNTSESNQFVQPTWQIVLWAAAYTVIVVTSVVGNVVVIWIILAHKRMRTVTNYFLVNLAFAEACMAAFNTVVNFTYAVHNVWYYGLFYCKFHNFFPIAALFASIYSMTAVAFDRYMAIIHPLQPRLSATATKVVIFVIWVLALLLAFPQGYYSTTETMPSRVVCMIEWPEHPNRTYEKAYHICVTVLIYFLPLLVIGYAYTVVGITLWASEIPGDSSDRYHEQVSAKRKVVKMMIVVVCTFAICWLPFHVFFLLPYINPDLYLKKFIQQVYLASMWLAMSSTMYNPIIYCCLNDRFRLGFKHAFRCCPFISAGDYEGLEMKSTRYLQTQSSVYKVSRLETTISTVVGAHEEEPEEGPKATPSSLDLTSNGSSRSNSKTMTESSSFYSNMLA

Compound | IC50 (hNK1R) [nM] | IC50 (rNK1R) [nM] | further results
CC(C)(C)OC(=O)NCCCCCC(=O)N[C@@H](Cc1c[nH]c2ccccc12)C(=O)OCc1cc(C(F)(F)F)cc(C(F)(F)F)c1 [Compound 4a, 3,5-bis(trifluoromethyl)benzyl (6-((tert-butoxycarbonyl)amino)hexanoyl)-L-tryptophanate] | 60.7 ± 31.9 | 1660 ± 1050 | 
C[C@@H](N)C(=O)N[C@H](C)C(=O)N[C@@H](Cc1c[nH]c2ccccc12)C(=O)OCc1cc(C(F)(F)F)cc(C(F)(F)F)c1 [Compound 3b, (R)-1-(((R)-1-(((S)-1-((3,5-bis(trifluoromethyl)benzyl)oxy)-3-(1H-indol-3-yl)-1-oxopropan-2-yl)amino)-1-oxopropan-2-yl)amino)-1-oxopropan-2-aminium 2,2,2-trifluoroacetate] | 80.8 ± 59.7 | 4010 ± 1370 | 
C[C@@H](NC(=O)CN1CCN(CC(=O)O)CCN(CC(=O)O)CCN(CC(=O)O)CC1)C(=O)N[C@H](C)C(=O)N[C@@H](Cc1c[nH]c2ccccc12)C(=O)OCc1cc(C(F)(F)F)cc(C(F)(F)F)c1 [[^177Lu]Lu-3d, metal not drawn] |  |  | logD (physchem; [1]): 0.619 ± 0.007
CC(=O)N[C@H](C)C(=O)N[C@H](C)C(=O)N[C@@H](Cc1c[nH]c2ccccc12)C(=O)OCc1cc(C(F)(F)F)cc(C(F)(F)F)c1 [Compound 3c, 3,5-bis(trifluoromethyl)benzyl acetyl-D-alanyl-D-alanyl-L-tryptophanate] | 13.5 ± 12.1 | 1140 ± 289 | 
C[C@@H](NC(=O)OC(C)(C)C)C(=O)N[C@@H](Cc1c[nH]c2ccccc12)C(=O)OCc1cc(C(F)(F)F)cc(C(F)(F)F)c1 [Compound 2a, 3,5-bis(trifluoromethyl)benzyl (tert-butoxycarbonyl)-D-alanyl-L-tryptophanate] | 135 ± 108 | 1530 ± 279 | 
O=C(O)CN1CCN(CC(=O)O)CCN(CC(=O)NCCCCCC(=O)N[C@@H](Cc2c[nH]c3ccccc23)C(=O)OCc2cc(C(F)(F)F)cc(C(F)(F)F)c2)CCN(CC(=O)O)CC1 [[^177Lu]Lu-4d, metal not drawn] |  |  | logD (physchem; [1]): 0.866 ± 0.019
O=C(O)CN1CCN(CC(=O)O)CCN(CC(=O)NCCCCCC(=O)NCCCCCC(=O)N[C@@H](Cc2c[nH]c3ccccc23)C(=O)OCc2cc(C(F)(F)F)cc(C(F)(F)F)c2)CCN(CC(=O)O)CC1 [[^177Lu]Lu-5d, metal not drawn] |  |  | logD (physchem; [1]): 0.294 ± 0.013
C[C@@H](NC(=O)OC(C)(C)C)C(=O)N[C@H](C)C(=O)N[C@@H](Cc1c[nH]c2ccccc12)C(=O)OCc1cc(C(F)(F)F)cc(C(F)(F)F)c1 [Compound 3a, 3,5-bis(trifluoromethyl)benzyl (tert-butoxycarbonyl)-D-alanyl-D-alanyl-L-tryptophanate] | 13.9 ± 11.2 | 745 ± 311 | IC50 (Mean ± SD) rNK1R (rNK1R): submicromolar
CC(C)(C)OC(=O)NCCCCCC(=O)NCCCCCC(=O)N[C@@H](Cc1c[nH]c2ccccc12)C(=O)OCc1cc(C(F)(F)F)cc(C(F)(F)F)c1 [Compound 5a, 3,5-bis(trifluoromethyl)benzyl (6-(6-((tert-butoxycarbonyl)amino)hexanamido)hexanoyl)-L-tryptophanate] | 4.5 ± 2.8 | 762 ± 295 | IC50 (Mean ± SD) rNK1R (rNK1R): submicromolar
C[C@@H](N)C(=O)N[C@@H](Cc1c[nH]c2ccccc12)C(=O)OCc1cc(C(F)(F)F)cc(C(F)(F)F)c1 [Compound 2b, (R)-1-(((S)-1-((3,5-bis(trifluoromethyl)benzyl)oxy)-3-(1H-indol-3-yl)-1-oxopropan-2-yl)amino)-1-oxopropan-2-aminium 2,2,2-trifluoroacetate] | 25.4 ± 12.5 | 4680 ± 1320 | 
CC(=O)N[C@H](C)C(=O)N[C@@H](Cc1c[nH]c2ccccc12)C(=O)OCc1cc(C(F)(F)F)cc(C(F)(F)F)c1 [Compound 2c, 3,5-bis(trifluoromethyl)benzyl acetyl-D-alanyl-L-tryptophanate] | 25.3 ± 0.4 | 2280 ± 703 | 
C[C@@H](NC(=O)CN1CCN(CC(=O)O)CCN(CC(=O)O)CCN(CC(=O)O)CC1)C(=O)N[C@@H](Cc1c[nH]c2ccccc12)C(=O)OCc1cc(C(F)(F)F)cc(C(F)(F)F)c1 [[^68Ga]Ga-2d, metal not drawn] |  |  | logD (physchem; [2]): -0.06 ± 0.02
CC(C)(C)OC(=O)N[C@@H](Cc1c[nH]c2ccccc12)C(=O)OCc1cc(C(F)(F)F)cc(C(F)(F)F)c1 [Compound 1a, 3,5-bis(trifluoromethyl)benzyl (tert-butoxycarbonyl)-L-tryptophanate] | 180 ± 112 | 2930 ± 1520 | fold weaker hNK1R binding than parent compound (hNK1R): 7 ×
C[C@@H](NC(=O)CN1CCN(CC(=O)O)CCN(CC(=O)O)CCN(CC(=O)O)CC1)C(=O)N[C@@H](Cc1c[nH]c2ccccc12)C(=O)OCc1cc(C(F)(F)F)cc(C(F)(F)F)c1 [[^177Lu]Lu-2d, metal not drawn] |  |  | logD (physchem; [1]): 0.704 ± 0.005
O=C(O)CN1CCN(CC(=O)O)CCN(CC(=O)NCCCCCC(=O)N[C@@H](Cc2c[nH]c3ccccc23)C(=O)OCc2cc(C(F)(F)F)cc(C(F)(F)F)c2)CCN(CC(=O)O)CC1 [[^68Ga]Ga-4d, metal not drawn] |  |  | logD (physchem; [2]): 0.071 ± 0.023
N[C@@H](Cc1c[nH]c2ccccc12)C(=O)OCc1cc(C(F)(F)F)cc(C(F)(F)F)c1.O=C(O)C(F)(F)F [Compound 1b, (S)-1-((3,5-bis(trifluoromethyl)benzyl)oxy)-3-(1H-indol-3-yl)-1-oxopropan-2-aminium 2,2,2-trifluoroacetate] | 359 ± 132 | > 10000 | fold weaker hNK1R binding than parent compound (hNK1R): 14 ×
O=C(O)CN1CCN(CC(=O)O)CCN(CC(=O)N[C@@H](Cc2c[nH]c3ccccc23)C(=O)OCc2cc(C(F)(F)F)cc(C(F)(F)F)c2)CCN(CC(=O)O)CC1 [Ga-1d] | 5.1 ± 2 | 112 ± 3 | 

Further lines, with some results ahead:

IC50 (hNK1R) [nM] | IC50 (rNK1R) [nM] | Compound | further results
20.4 ± 10.2 | 572 ± 41 | NCCCCCC(=O)NCCCCCC(=O)N[C@@H](Cc1c[nH]c2ccccc12)C(=O)OCc1cc(C(F)(F)F)cc(C(F)(F)F)c1.O=C(O)C(F)(F)F [Compound 5b, (S)-6-((6-((1-((3,5-bis(trifluoromethyl)benzyl)oxy)-3-(1H-indol-3-yl)-1-oxopropan-2-yl)amino)-6-oxohexyl)amino)-6-oxohexan-1-aminium 2,2,2-trifluoroacetate] | IC50 (Mean ± SD) rNK1R (rNK1R): submicromolar
35.4 ± 23.6 | 1400 ± 319 | NCCCCCC(=O)N[C@@H](Cc1c[nH]c2ccccc12)C(=O)OCc1cc(C(F)(F)F)cc(C(F)(F)F)c1 [Compound 4b, (S)-6-((1-((3,5-bis(trifluoromethyl)benzyl)oxy)-3-(1H-indol-3-yl)-1-oxopropan-2-yl)amino)-6-oxohexan-1-aminium 2,2,2-trifluoroacetate] | 
83.1 ± 69.3 | 1950 ± 641 | CC(=O)NCCCCCC(=O)N[C@@H](Cc1c[nH]c2ccccc12)C(=O)OCc1cc(C(F)(F)F)cc(C(F)(F)F)c1 [Compound 4c, 3,5-bis(trifluoromethyl)benzyl (6-acetamidohexanoyl)-L-tryptophanate] | 
8.7 ± 3.2 |  | O=C(O)CN1CCN(CC(=O)O)CCN(CC(=O)NCCCCCC(=O)N[C@@H](Cc2c[nH]c3ccccc23)C(=O)OCc2cc(C(F)(F)F)cc(C(F)(F)F)c2)CCN(CC(=O)O)CC1 [Compound 4d] | 
14.3 ± 5.2 | 655 ± 120 | CC(=O)NCCCCCC(=O)NCCCCCC(=O)N[C@@H](Cc1c[nH]c2ccccc12)C(=O)OCc1cc(C(F)(F)F)cc(C(F)(F)F)c1 [Compound 5c, 3,5-bis(trifluoromethyl)benzyl (6-(6-acetamidohexanamido)hexanoyl)-L-tryptophanate] | IC50 (Mean ± SD) rNK1R (rNK1R): submicromolar
